Tests used:
[1] = MTS cytotoxicity assay in rat primary neocortical cultures; type: cell-based; conditions: CD, primary neocortical cultures from E17 rat embryos
Protocol: Primary cultures were established from the neocortex of E17 rat embryos obtained from timed pregnant CD rats (Charles River Laboratories, Wilmington, MA). Following tissue dissection and trituration, the cultures were suspended in Neurobasal™ medium (Invitrogen) supplemented with 10% horse serum (Sigma-Aldrich) and 520 μM L-glutamine. Cells were plated at 50,000 cells/well in Costar 96-well poly-D-lysine-coated plates. Following incubation at 37°C and 5% CO2 for 4–5 h, the plating medium was exchanged with Neurobasal® medium with 2% B-27® supplement (Invitrogen), 520 μM of L-glutamine, and 1% penicillin-streptomycin. […] Cultures were incubated with compound for 24 h for analysis of Aβ peptides by sandwich ELISA and cytotoxicity by MTS assay.

Tg2576 mice [2] = assay: Contextual fear conditioning assay
Protocol: Animals in the food formulation groups were maintained on the compound formulated diets. The training session on day 1 consisted of the following sequence: 3 min acclimation to the test chamber (Kinder Scientific, Poway, CA), 2 s 1.5 mA foot shock, 2 min wait period, another 2 s 1.5 mA foot shock, followed by a final 1 min wait period. On day 2, testing consisted of returning the animals to the chamber for 5 min and the total time spent freezing was measured by an automated software system (Kinder Scientific). […] Percentage of time spent freezing for each mouse was calculated using the formula: (number of seconds with zero beam breaks/300) X 100.

HEK293 cells = assay: CellTiter-Blue cell viability in HEK293 cells expressing NotchΔE; type: cell-based, human; conditions: up to 30 μM
COX-1 = molecular target: T1, COX-1 (Homo sapiens, UniProt P23219); assay: COX-1 enzyme assay (Cerep); type: biochemical; conditions: human recombinant, arachidonic acid 4 μM
T1 construct: purchased Cerep (Redmond, WA) 0726; host or cells: Sf9
Protocol: (§1) COX-1 and COX-2 enzyme assays were performed by Cerep (Redmond, WA, Catalog # 0726 and 0727). Briefly, the assays used human recombinant Sf9 cells and arachidonic acid (4 μM for COX-1 and 2 μM for COX-2) as the substrate. Production of PGE2 was detected by enzyme immunoassay.

Tg2576 mice [3] = assay: Chronic treatment of Tg2576 mice, sequentially extracted brain Aβ by ELISA; type: in vivo, mouse; conditions: 50 weeks
From the text: Male Tg2576 and WT mice were both derived from crosses of male Tg2576 mice and female B6SJLF1 mice (Taconic) and were singly housed upon arrival. […] Some animals were euthanized as described above. For histological studies, a subset of mice were euthanized by CO2 asphyxiation and transcardially perfused with cold 0.9% NaCl. […] The left cerebral hemisphere was cut into 2 pieces, weighed, and frozen.

Tg2576 mice [4] = assay: Western blot of APP species and total Aβ in Tg2576 mouse brain; type: in vivo; conditions: 50 weeks
Protocol: For determination of APP α- and β-CTFs in Tg2576 mouse brain, hemisphere samples were thawed in ice-cold homogenization buffer (150 mg of tissue/mL, 50 mM Tris and 150 mM NaCl, pH 7.4) with protease inhibitor cocktail (Mini Complete™, Roche Applied Science, Penzberg, Germany). Homogenized samples were spun at 435,000 g for 50 min at 4°C. The supernatant was discarded and the pellet resuspended in the same volume of homogenization buffer containing 0.5% Triton®-X 100, 1% deoxycholate, and 3% SDS. The pellets were triturated with a pipette until resuspended and incubated on a rotator for 1 h at 4°C. The samples were then centrifuged at 435,000 g for 50 min at 4°C and the detergent-soluble supernatant was collected. Protein concentration for membrane (detergent soluble) fraction was determined using the BCA method (Pierce, Rockford, IL). Thirty micrograms of total protein were separated on a Tricine 10-20% gel (Invitrogen) and transferred to a nitrocellulose membrane. Blots were probed with an anti-APP-CTF antibody (Sigma-Aldrich) or anti-Aβ antibody (clone 6E10) followed by incubation with IRDye secondary antibodies (Li-Cor Biosciences).
Male Tg2576 and WT mice were both derived from crosses of male Tg2576 mice and female B6SJLF1 mice (Taconic) and were singly housed upon arrival. […] Some animals were euthanized as described above. For histological studies, a subset of mice were euthanized by CO2 asphyxiation and transcardially perfused with cold 0.9% NaCl. The right hemispheres were immersion fixed in fresh 4% paraformaldehyde in 0.1 M phosphate buffer, pH 7.4 for 1 h, transferred to a 15% sucrose cryoprotectant for 24 h at room temperature, and on the next day, frozen in isopentane chilled by dry ice for 1 min. The left cerebral hemisphere was cut into 2 pieces, weighed, and frozen.

COX-2 = molecular target: T2, COX-2 (Homo sapiens, UniProt P35354); assay: COX-2 enzyme assay (Cerep); type: biochemical; conditions: at 30 μM, human recombinant, arachidonic acid 2 μM
T2 construct: purchased Cerep (Redmond, WA) 0727; host or cells: Sf9
T2 sequence (P35354 18-604): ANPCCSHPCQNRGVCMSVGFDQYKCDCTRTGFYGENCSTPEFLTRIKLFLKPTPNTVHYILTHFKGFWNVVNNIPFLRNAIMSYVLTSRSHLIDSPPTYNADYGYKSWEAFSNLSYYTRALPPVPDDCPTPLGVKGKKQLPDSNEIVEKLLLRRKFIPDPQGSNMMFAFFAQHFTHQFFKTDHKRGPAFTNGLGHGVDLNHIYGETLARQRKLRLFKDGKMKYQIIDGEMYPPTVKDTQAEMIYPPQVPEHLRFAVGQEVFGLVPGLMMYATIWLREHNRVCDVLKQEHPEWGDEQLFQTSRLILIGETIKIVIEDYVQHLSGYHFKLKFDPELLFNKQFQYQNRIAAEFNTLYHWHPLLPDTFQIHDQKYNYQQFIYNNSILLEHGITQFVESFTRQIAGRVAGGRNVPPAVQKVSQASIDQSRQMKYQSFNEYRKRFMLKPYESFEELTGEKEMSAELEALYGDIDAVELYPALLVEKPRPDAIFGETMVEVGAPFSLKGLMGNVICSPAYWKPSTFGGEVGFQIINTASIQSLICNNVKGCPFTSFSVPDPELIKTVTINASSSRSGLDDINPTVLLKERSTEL
Protocol: as §1

T1 sequence (P23219 24-599): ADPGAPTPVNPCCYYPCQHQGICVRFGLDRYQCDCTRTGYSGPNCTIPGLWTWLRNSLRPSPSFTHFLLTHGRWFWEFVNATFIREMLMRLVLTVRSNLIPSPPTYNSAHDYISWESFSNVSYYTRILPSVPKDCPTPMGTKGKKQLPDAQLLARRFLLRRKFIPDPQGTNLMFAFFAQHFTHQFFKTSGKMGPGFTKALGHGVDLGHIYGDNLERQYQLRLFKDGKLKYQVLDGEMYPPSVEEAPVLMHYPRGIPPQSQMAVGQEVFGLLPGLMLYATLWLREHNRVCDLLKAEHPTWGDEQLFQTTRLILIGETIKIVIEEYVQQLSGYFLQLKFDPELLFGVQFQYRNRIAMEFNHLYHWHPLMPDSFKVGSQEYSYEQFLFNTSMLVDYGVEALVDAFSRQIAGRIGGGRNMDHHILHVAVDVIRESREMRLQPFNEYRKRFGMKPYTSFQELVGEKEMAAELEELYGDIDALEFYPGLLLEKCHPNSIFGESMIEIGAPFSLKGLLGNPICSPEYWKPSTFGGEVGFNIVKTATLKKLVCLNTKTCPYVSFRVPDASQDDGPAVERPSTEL

Compound: O=C(O)[C@H](CC1CCC1)c1cc(Cl)c(OCC(F)(F)F)c(-c2ccc(C(F)(F)F)cc2)c1 [EVP-0015962, (R)-2-(5-chloro-6-(2,2,2-trifluoroethoxy)-4’-(trifluoromethyl)biphenyl-3-yl)-3-cyclobutylpropanoic acid]
- IC50 at 24 h [1]: > 30 µM
- genotype-associated deficit in percent freezing (CFC) (Tg2576 mice [2]; 20 or 60 mg/kg/day in food, 11 weeks (p < 0.01)): reversed
- genotype-associated deficit in percent freezing (CFC) (Tg2576 mice [2]; single dose 30 mg/kg p.o., 3 h prior to training): did not reverse this deficit
- cell viability (HEK293 cells): did not affect
- IC50 (COX-1): > 10 µM
- Aβ38 in the TBS soluble fraction (Tg2576 mice [3]; 20 mg/kg/day): did not produce a significant increase
- percent reduction in Aβ42 in the TBS soluble fraction (Tg2576 mice [3]; 20 mg/kg/day): 53%
- reduction in AβTotal in the formic acid extractable fraction (Tg2576 mice [3]; 20 mg/kg/day): 49%
- reduction in formic acid extractable Aβ42 (Tg2576 mice [3]; 20 mg/kg/day): 53%
- age-related increase in soluble and insoluble Aβ42 (Tg2576 mice [3]; 60 mg/kg/day): prevented the dramatic increase
- increase in Aβ38 in the TBS soluble fraction (Tg2576 mice [3]; 60 mg/kg/day): 78%
- percent reduction in Aβ42 in the TBS soluble fraction (Tg2576 mice [3]; 60 mg/kg/day): 89%
- reduction in AβTotal in the formic acid extractable fraction (Tg2576 mice [3]; 60 mg/kg/day): 64%
- reduction in formic acid extractable Aβ42 (Tg2576 mice [3]; 60 mg/kg/day): 86%
- Aβ38 in the formic acid extractable fraction (Tg2576 mice [3]; 20 or 60 mg/kg/day): not significantly changed
- AβTotal in the TBS soluble fraction (Tg2576 mice [3]; 20 or 60 mg/kg/day): unchanged
- age-related increase in Aβ42 (Tg2576 mice [3]; lower dose (20 mg/kg/day)): partially effective
- reduction in total Aβ by Western blot vs control diet (Tg2576 mice [4]; 20 mg/kg/day): 42%
- reduction in total Aβ by Western blot vs control diet (Tg2576 mice [4]; 60 mg/kg/day): 81%
- levels of full length APP, β-CTF, and α-CTF in brain (Tg2576 mice [4]; 20 or 60 mg/kg/day): no increases
- percent inhibition for COX-2 (COX-2): 56%
